Values quoted from earlier work in patent US10759826B2, “15β-substituted estrone derivatives as selective inhibitors of 17β-hydroxysteroid-dehydrogenases, method of preparation and use thereof” (USTAV ORGANICKE CHEMIE A BIOCHEMIE AV CR, V.V.I., priority 2016, dated 2020).

Test system: T-47D ER+ cells
Details: Laplante et al. 2008; cited from earlier work

C[C@]12CC[C@@H]3c4ccc(O)cc4CC[C@H]3[C@@H]1C[C@H](Cc1cccc(C(N)=O)c1)[C@@H]2O [Compound E2B, 16β-m-carbamoylbenzyl-E2]
reduction of proliferation induced by the physiological level of E1: 62%
